Laboratory results as given in PubChem BioAssay AID2060603 (Molecular Pharmacology Branch, DTP, NCI, 2025).

Tested on: 422866-222-R5-J1-PDC spheroid viability
Assay: Anticancer human tumor 422866-222-R5-J1-PDC patient-derived pancreatic adenocarcinoma cell line growth inhibition [CLK]
Conditions: spheroids with HUVEC and MSC; for IC50: curve of first compound; for viability, T/C: stronger effect = lower value; active = viability on the fitted dose curve at most 10% of control; inactive = the rest
How it was run: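 Patient-derived tumor cells grown as complex spheroids with HUVEC endothelial cells and mesenchymal stem cells, treated with drug combinations. Concentrations descend in half-log steps from near clinical Cmax, or from 10 microM if Cmax unknown.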

[1] = second compound 0.0316 µM, first compound 0.0316 µM
[2] = second compound 0.0316 µM, first compound 0.1 µM
[3] = second compound 0.0316 µM, first compound 0.316 µM
[4] = second compound 0.0316 µM, first compound 1 µM
[5] = second compound 0.0316 µM, first compound 3.16 µM
[6] = second compound 0.0316 µM, first compound 10 µM
[7] = second compound 0.1 µM, first compound 0.0316 µM
[8] = second compound 0.1 µM, first compound 0.1 µM
[9] = second compound 0.1 µM, first compound 0.316 µM
[10] = second compound 0.1 µM, first compound 1 µM
[11] = second compound 0.1 µM, first compound 3.16 µM
[12] = second compound 0.1 µM, first compound 10 µM
[13] = second compound 0.316 µM, first compound 0.0316 µM
[14] = second compound 0.316 µM, first compound 0.1 µM
[15] = second compound 0.316 µM, first compound 0.316 µM
[16] = second compound 0.316 µM, first compound 1 µM
[17] = second compound 0.316 µM, first compound 3.16 µM
[18] = second compound 0.316 µM, first compound 10 µM
[19] = second compound 1 µM, first compound 0.0316 µM
[20] = second compound 1 µM, first compound 0.1 µM
[21] = second compound 1 µM, first compound 0.316 µM
[22] = second compound 1 µM, first compound 1 µM
[23] = second compound 1 µM, first compound 3.16 µM
[24] = second compound 1 µM, first compound 10 µM
[25] = second compound 3.16 µM, first compound 0.0316 µM
[26] = second compound 3.16 µM, first compound 0.1 µM
[27] = second compound 3.16 µM, first compound 0.316 µM
[28] = second compound 3.16 µM, first compound 1 µM
[29] = second compound 3.16 µM, first compound 3.16 µM
[30] = second compound 3.16 µM, first compound 10 µM
[31] = second compound 10 µM, first compound 0.0316 µM
[32] = second compound 10 µM, first compound 0.1 µM
[33] = second compound 10 µM, first compound 0.316 µM
[34] = second compound 10 µM, first compound 1 µM
[35] = second compound 10 µM, first compound 3.16 µM
[36] = second compound 10 µM, first compound 10 µM
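Also: spheroids exposed to agents for seven days before readout.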

O=C(c1cc(Cc2n[nH]c(=O)c3ccccc23)ccc1F)N1CCN(C(=O)C2CC2)CC1 + CNC(=O)c1ccc(Nc2nc(OC3CCCC3)c3c(-c4ccc5nc(C)oc5c4)c[nH]c3n2)c(OC)c1
> 10000 nM: IC50 (second compound 0.0316 µM) | IC50 (second compound 0.1 µM) | IC50 (second compound 0.316 µM) | IC50 (second compound 1 µM) | IC50 (second compound 3.16 µM) | IC50 (second compound 10 µM)
inactive: viability, T/C [1] 103% | viability, T/C [2] 104% | viability, T/C [3] 112% | viability, T/C [4] 110% | viability, T/C [5] 90.6% | viability, T/C [6] 90.2% | viability, T/C [7] 111% | viability, T/C [8] 110% | viability, T/C [9] 108% | viability, T/C [10] 110% | viability, T/C [11] 91.9% | viability, T/C [12] 72% | viability, T/C [13] 85.2% | viability, T/C [14] 84.7% | viability, T/C [15] 77.2% | viability, T/C [16] 71.2% | viability, T/C [17] 76.1% | viability, T/C [18] 60.6% | viability, T/C [19] 71.3% | viability, T/C [20] 63.9% | viability, T/C [21] 64% | viability, T/C [22] 52.1% | viability, T/C [23] 71.3% | viability, T/C [24] 65.7% | viability, T/C [25] 68% | viability, T/C [26] 85.8% | viability, T/C [27] 68.1% | viability, T/C [28] 66.9% | viability, T/C [29] 57.8% | viability, T/C [30] 59.2% | viability, T/C [31] 66.1% | viability, T/C [32] 75.8% | viability, T/C [33] 58.3% | viability, T/C [34] 62.1% | viability, T/C [35] 62.4% | viability, T/C [36] 51.8%

C#Cc1c(F)ccc2cc(O)cc(-c3ncc4c(N5CC6CCC(C5)N6)nc(OCC56CCCN5CC(F)C6)nc4c3F)c12 (stereo not given) + CNC(=O)c1ccc(Nc2nc(OC3CCCC3)c3c(-c4ccc5nc(C)oc5c4)c[nH]c3n2)c(OC)c1
298 nM: IC50 (second compound 0.316 µM)
735 nM: IC50 (second compound 0.1 µM)
223 nM: IC50 (second compound 1 µM)
inactive: viability, T/C [1] 102% | viability, T/C [2] 93.5% | viability, T/C [3] 70.8% | viability, T/C [4] 53.7% | viability, T/C [5] 32.1% | viability, T/C [6] 26.1% | viability, T/C [7] 81.5% | viability, T/C [8] 67.9% | viability, T/C [9] 61.9% | viability, T/C [10] 46.3% | viability, T/C [11] 33.9% | viability, T/C [12] 25.6% | viability, T/C [13] 71.7% | viability, T/C [14] 60.8% | viability, T/C [15] 47.2% | viability, T/C [16] 41.6% | viability, T/C [17] 33.8% | viability, T/C [18] 26.8% | viability, T/C [19] 58.5% | viability, T/C [20] 58.7% | viability, T/C [21] 45.1% | viability, T/C [22] 37.3% | viability, T/C [23] 28.5% | viability, T/C [24] 24.6% | viability, T/C [25] 62.7% | viability, T/C [26] 51.9% | viability, T/C [27] 49.6% | viability, T/C [28] 32.8% | viability, T/C [29] 39.4% | viability, T/C [30] 24% | viability, T/C [31] 64.9% | viability, T/C [32] 50.5% | viability, T/C [33] 46.4% | viability, T/C [34] 42.5% | viability, T/C [35] 30.5% | viability, T/C [36] 21.9%
202 nM: IC50 (second compound 10 µM)
1070 nM: IC50 (second compound 0.0316 µM)
181 nM: IC50 (second compound 3.16 µM)

O=c1[nH]cc(F)c(=O)[nH]1 + CNC(=O)c1ccc(Nc2nc(OC3CCCC3)c3c(-c4ccc5nc(C)oc5c4)c[nH]c3n2)c(OC)c1
3110 nM: IC50 (second compound 10 µM)
inactive: viability, T/C [1] 102% | viability, T/C [2] 103% | viability, T/C [3] 89.9% | viability, T/C [4] 91.2% | viability, T/C [5] 82.2% | viability, T/C [6] 72.5% | viability, T/C [7] 100% | viability, T/C [8] 98.1% | viability, T/C [9] 86% | viability, T/C [10] 78.1% | viability, T/C [11] 87% | viability, T/C [12] 78.3% | viability, T/C [13] 79.3% | viability, T/C [14] 79.7% | viability, T/C [15] 68.9% | viability, T/C [16] 61.7% | viability, T/C [17] 58.3% | viability, T/C [18] 57.2% | viability, T/C [19] 68.2% | viability, T/C [20] 67.1% | viability, T/C [21] 51.6% | viability, T/C [22] 54.2% | viability, T/C [23] 51% | viability, T/C [24] 44.5% | viability, T/C [25] 58.3% | viability, T/C [26] 78.6% | viability, T/C [27] 73.1% | viability, T/C [28] 56.8% | viability, T/C [29] 52.5% | viability, T/C [30] 49.4% | viability, T/C [31] 60.6% | viability, T/C [32] 63.7% | viability, T/C [33] 70% | viability, T/C [34] 57.7% | viability, T/C [35] 46.4% | viability, T/C [36] 53.5%
> 10000 nM: IC50 (second compound 0.0316 µM) | IC50 (second compound 0.1 µM) | IC50 (second compound 0.316 µM) | IC50 (second compound 3.16 µM)
2180 nM: IC50 (second compound 1 µM)

CC1COCCN1c1cc(C2(S(C)(=N)=O)CC2)nc(-c2ccnc3[nH]ccc23)n1 (stereo not given) + CN1CCN(c2cc(C(=O)Nc3cc4cc(-c5cnn(C)c5)ccc4cn3)ccn2)CC1
< 31.6 nM: IC50 (second compound 1 µM) | IC50 (second compound 3.16 µM) | IC50 (second compound 10 µM)
> 10000 nM: IC50 (second compound 0.0316 µM) | IC50 (second compound 0.1 µM) | IC50 (second compound 0.316 µM)
inactive: viability, T/C [1] 112% | viability, T/C [2] 104% | viability, T/C [3] 93.6% | viability, T/C [4] 89.3% | viability, T/C [5] 56% | viability, T/C [6] 55.6% | viability, T/C [7] 115% | viability, T/C [8] 95.7% | viability, T/C [9] 113% | viability, T/C [10] 74.3% | viability, T/C [11] 60.2% | viability, T/C [12] 61.2% | viability, T/C [13] 95% | viability, T/C [14] 85.8% | viability, T/C [15] 79.9% | viability, T/C [16] 73.2% | viability, T/C [17] 61.2% | viability, T/C [18] 56.2% | viability, T/C [19] 30.9% | viability, T/C [20] 26.6% | viability, T/C [21] 27.7% | viability, T/C [22] 21.6% | viability, T/C [23] 23.8% | viability, T/C [24] 17.5% | viability, T/C [25] 10.7% | viability, T/C [26] 10.4% | viability, T/C [27] 11.6% | viability, T/C [28] 10.4% | viability, T/C [29] 10.6% | viability, T/C [30] 10.2%
active: viability, T/C [31] 2.45% | viability, T/C [32] 2.21% | viability, T/C [33] 1.54% | viability, T/C [34] 2.27% | viability, T/C [35] 4.47% | viability, T/C [36] 2.46%

Nc1ccn(C2OC(CO)C(O)C2(F)F)c(=O)n1 (stereo not given) + CN1CCN(c2cc(C(=O)Nc3cc4cc(-c5cnn(C)c5)ccc4cn3)ccn2)CC1
156 nM: IC50 (second compound 0.316 µM)
inactive: viability, T/C [1] 62.9% | viability, T/C [2] 46.5% | viability, T/C [3] 37.8% | viability, T/C [4] 42% | viability, T/C [5] 40.3% | viability, T/C [6] 38.1% | viability, T/C [7] 74.4% | viability, T/C [8] 44.9% | viability, T/C [9] 57.2% | viability, T/C [10] 45.2% | viability, T/C [11] 38.7% | viability, T/C [12] 37.5% | viability, T/C [13] 66.9% | viability, T/C [14] 50.9% | viability, T/C [15] 46.9% | viability, T/C [16] 55.9% | viability, T/C [17] 45.6% | viability, T/C [18] 46% | viability, T/C [19] 25.9% | viability, T/C [20] 20.6% | viability, T/C [21] 21.3% | viability, T/C [22] 16.7% | viability, T/C [23] 19.1% | viability, T/C [24] 14.9%
active: viability, T/C [25] 8.63% | viability, T/C [26] 8.77% | viability, T/C [27] 10.5% | viability, T/C [28] 9.38% | viability, T/C [29] 10.2% | viability, T/C [30] 10.9% | viability, T/C [31] 1.24% | viability, T/C [32] 1.59% | viability, T/C [33] 1.16% | viability, T/C [34] 1.57% | viability, T/C [35] 4.23% | viability, T/C [36] 3.93%
84.6 nM: IC50 (second compound 0.1 µM)
< 31.6 nM: IC50 (second compound 1 µM) | IC50 (second compound 3.16 µM) | IC50 (second compound 10 µM)
74.3 nM: IC50 (second compound 0.0316 µM)
